Measurements published in patent US12617773B2, “Azetidin-3-ylmethanol derivatives as CCR6 receptor modulators” (Idorsia Pharmaceuticals Ltd, priority 2020, dated 2026).

What follows are compounds tested against T1, human CCR6 (Homo sapiens, UniProt P51684) (assay: FLIPR assay (inhibition of CCL20-induced calcium signal)). Conditions: FLIPR IC50 (nM), HEK-293 cells expressing human CCR6; mean values where determined several times.
T1 construct: expressed in transfected cells; host or cells: HEK-293
T1 sequence (P51684 1-374): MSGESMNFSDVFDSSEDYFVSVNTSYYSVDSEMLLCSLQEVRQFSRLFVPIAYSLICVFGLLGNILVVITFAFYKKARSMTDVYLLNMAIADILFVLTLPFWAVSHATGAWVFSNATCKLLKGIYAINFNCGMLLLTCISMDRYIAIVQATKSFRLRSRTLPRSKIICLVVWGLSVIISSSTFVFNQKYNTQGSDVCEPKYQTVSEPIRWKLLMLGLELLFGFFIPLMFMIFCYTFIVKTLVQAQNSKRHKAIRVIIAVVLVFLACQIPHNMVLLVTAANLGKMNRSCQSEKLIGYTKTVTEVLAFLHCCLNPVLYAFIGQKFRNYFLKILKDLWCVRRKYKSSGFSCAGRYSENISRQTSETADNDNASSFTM
Assay type: cell-based
In short: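 Dye-loaded HEK-293 cells expressing human CCR6 were preincubated with compound for 30 min at room temperature in the dark, then challenged with 10 nM CCL20 (final). Fluorescence was tracked on FLIPR, and baseline-subtracted peak emission over base after agonist addition gave inhibition dose-response curves for IC50.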

| SMILES | IC50 |
| --- | --- |
| CN1CC(C)(C(O)(c2ccc(C(C)(C)C)cc2)c2cncc(N3CCCC3)c2)C1 (stereo not drawn) [Example 157] | 27.7 nM |

Same assay, conditions: HEK-293 cells expressing human CCR6; mean values where determined several times; read-out: FLIPR IC50

| IC50 | SMILES |
| --- | --- |
| 38 nM | CC(C)c1ccc([C@](O)(c2cncc(-c3noc(C4CC45CCOCC5)n3)c2)C2(C)CN(C)C2)cc1 (stereo partly drawn) [Example 114] |
| 41 nM | CC(C)c1ccc([C@](O)(c2cncc(-c3noc(C4CCCOC4)n3)c2)C2(C)CN(C)C2)cc1 (stereo partly drawn) [Example 115] |
| 40.8 nM | CC(C)c1ccc([C@](O)(c2cncc(-c3noc(CC4CCCO4)n3)c2)C2(C)CN(C)C2)cc1 (stereo partly drawn) [Example 116] |
| 20.1 nM | CC(C)c1ccc([C@](O)(c2cncc(-c3noc([C@@](C)(O)C(F)(F)F)n3)c2)C2(C)CN(C)C2)cc1 [Example 117] |
| 43.1 nM | COC(C)(C)c1nc(-c2cncc([C@@](O)(c3ccc(C(C)C)cc3)C3(C)CN(C)C3)c2)no1 [Example 118] |
| 20.5 nM | CC(C)c1ccc([C@](O)(c2cncc(-c3noc([C@H](O)C4CCCCC4)n3)c2)C2(C)CN(C)C2)cc1 [Example 119] |
| 59.2 nM | CC(C)c1ccc([C@](O)(c2cncc(-c3noc(C4(O)CC4)n3)c2)C2(C)CN(C)C2)cc1 [Example 120] |
| 57.7 nM | CC(C)c1ccc([C@](O)(c2cncc(-c3noc(C(C)(C)O)n3)c2)C2(C)CN(C)C2)cc1 [Example 121] |
| 42.1 nM | CC(C)c1ccc([C@](O)(c2cncc(-c3noc(C4(O)CCCC4)n3)c2)C2(C)CN(C)C2)cc1 [Example 122] |
| 46.9 nM | CC(C)c1ccc([C@](O)(c2cncc(-c3noc(C4CC(O)C4)n3)c2)C2(C)CN(C)C2)cc1 (stereo partly drawn) [Example 123] |
| 35.9 nM | CC(C)c1ccc([C@](O)(c2cncc(-c3noc(C4(F)CCOCC4)n3)c2)C2(C)CN(C)C2)cc1 [Example 124] |
| 46.9 nM | CC(C)c1ccc([C@](O)(c2cncc(-c3noc([C@H]4C[C@@H](C)O[C@@H](C)C4)n3)c2)C2(C)CN(C)C2)cc1 [Example 125] |
| 84.9 nM | CC(C)c1ccc([C@](O)(c2cncc(-c3noc(COC4CCOCC4)n3)c2)C2(C)CN(C)C2)cc1 [Example 126] |
| 32.4 nM | CC(C)c1ccc([C@](O)(c2cncc(-c3noc(C(C)(C)C4CCOCC4)n3)c2)C2(C)CN(C)C2)cc1 [Example 127] |
| 40.3 nM | CC(C)c1ccc([C@](O)(c2cncc(-c3noc(CCC4CCOCC4)n3)c2)C2(C)CN(C)C2)cc1 [Example 128] |
| 35.9 nM | CC(C)c1ccc([C@](O)(c2cncc(-c3noc(C4(O)CCC4)n3)c2)C2(C)CN(C)C2)cc1 [Example 129] |
| 74.7 nM | CC(C)c1ccc([C@](O)(c2cncc(-c3noc(CC(C)(C)O)n3)c2)C2(C)CN(C)C2)cc1 [Example 130] |
| 60.8 nM | CC(C)c1ccc([C@](O)(c2cncc(-c3noc(C4CC5CCC4O5)n3)c2)C2(C)CN(C)C2)cc1 (stereo partly drawn) [Example 131] |
| 50.1 nM | CC(C)c1ccc([C@](O)(c2cncc(-c3noc(COC4(C)CCOCC4)n3)c2)C2(C)CN(C)C2)cc1 [Example 132] |
| 74.5 nM | CC(C)c1ccc([C@](O)(c2cncc(-c3noc(C4COC4)n3)c2)C2(C)CN(C)C2)cc1 [Example 133] |
| 62 nM | COCC(C)(C)c1nc(-c2cncc([C@@](O)(c3ccc(C(C)C)cc3)C3(C)CN(C)C3)c2)no1 [Example 134, (R)-(1,3-Dimethyl-azetidin-3-yl)-(4-isopropyl-phenyl)-{5-[5-(2-methoxy-1,1-dimethyl-ethyl)-[1,2,4]oxadiazol-3-yl]-pyridin-3-yl}-methanol] |
| 74 nM | CC(C)c1ccc([C@](O)(c2cncc(-c3noc(C(C)(C)CO)n3)c2)C2(C)CN(C)C2)cc1 [Example 135] |
| 123 nM | COC(C)(C)Cc1nc(-c2cncc([C@@](O)(c3ccc(C(C)C)cc3)C3(C)CN(C)C3)c2)no1 [Example 136] |
| 60.3 nM | CC(C)c1ccc([C@](O)(c2cncc(-c3noc(CC4(O)CCC4)n3)c2)C2(C)CN(C)C2)cc1 [Example 137] |
| 45.8 nM | COCC1(Cc2nc(-c3cncc([C@@](O)(c4ccc(C(C)C)cc4)C4(C)CN(C)C4)c3)no2)CC1 [Example 138] |

| IC50 | SMILES |
| --- | --- |
| 66.6 nM | CC(C)c1ccc([C@](O)(c2cncc(-c3noc(CCn4cccn4)n3)c2)C2(C)CN(C)C2)cc1 [Example 139, (R)-(1,3-Dimethyl-azetidin-3-yl)-(4-isopropyl-phenyl)-{5-[5-(2-pyrazol-1-yl-ethyl)-[1,2,4]oxadiazol-3-yl]-pyridin-3-yl}-methanol] |
| 681 nM | [2H]C([2H])([2H])C(=O)NCCc1nc(-c2cncc([C@@](O)(c3ccc(C(C)C)cc3)C3(C)CN(C)C3)c2)no1 [Example 140, (R)—N-(2-(3-(5-((1,3-dimethylazetidin-3-yl)(hydroxy)(4-isopropylphenyl)methyl)pyridin-3-yl)-1,2,4-oxadiazol-5-yl)ethyl)acetamide-2,2,2-d3] |
| 211 nM | [2H]C([2H])([2H])C(=O)NC(C)(C)Cc1nc(-c2cncc([C@@](O)(c3ccc(C(C)C)cc3)C3(C)CN(C)C3)c2)no1 [Example 141] |
| 274 nM | CC(C)c1ccc([C@](O)(c2cncc(-c3noc(C4CCN(C(=O)CO)CC4)n3)c2)C2(C)CN(C)C2)cc1 [Example 142] |
| 188 nM | [2H]C([2H])([2H])C(=O)N1CCC(c2nc(-c3cncc([C@@](O)(c4ccc(C(C)C)cc4)C4(C)CN(C)C4)c3)no2)CC1 [Example 143] |
| 376 nM | CC(C)c1ccc([C@](O)(c2cncc(-c3noc(CCN(C)C(=O)CO)n3)c2)C2(C)CN(C)C2)cc1 [Example 144, N-[2-(3-{5-[(R)-(1,3-Dimethyl-azetidin-3-yl)-hydroxy-(4-isopropyl-phenyl)-methyl]-pyridin-3-yl}-[1,2,4]oxadiazol-5-yl)-ethyl]-2-hydroxy-N-methyl-acetamide] |
| 274 nM | [2H]C([2H])([2H])C(=O)N(C)CCc1nc(-c2cncc([C@@](O)(c3ccc(C(C)C)cc3)C3(C)CN(C)C3)c2)no1 [Example 145, (R)—N-(2-(3-(5-((1,3-dimethylazetidin-3-yl)(hydroxy)(4-isopropylphenyl)methyl)pyridin-3-yl)-1,2,4-oxadiazol-5-yl)-ethyl)-N-methylacetamide-d3] |
| 309 nM | COc1ccc(C(O)(c2ccc(OC(F)(F)F)cc2)C2(C)CN(C)C2)cn1 (stereo not drawn) [Example 146, (1,3-Dimethyl-azetidin-3-yl)-(6-methoxy-pyridin-3-yl)-(4-trifluoromethoxy-phenyl)-methanol] |
| 63.5 nM | CN1CC(C)(C(O)(c2ccc(OC(F)(F)F)cc2)c2ccc(Oc3ccccc3)nc2)C1 (stereo not drawn) [Example 147] |
| 35.8 nM | CCCc1ccc(C(O)(c2cncc(N3CCCC3)c2)C2(C)CN(C)C2)cc1 (stereo not drawn) [Example 150, (1,3-Dimethyl-azetidin-3-yl)-(4-propyl-phenyl)-(5-pyrrolidin-1-yl-pyridin-3-yl)-methanol] |
| 336 nM | COc1ccc(C(O)(c2cncc(N3CCCC3)c2)C2(C)CN(C)C2)cc1 (stereo not drawn) [Example 151] |
| 60.2 nM | CCc1ccc(C(O)(c2cncc(N3CCCC3)c2)C2(C)CN(C)C2)cc1 (stereo not drawn) [Example 152] |
| 214 nM | CN1CC(C)(C(O)(c2ccccc2)c2cncc(N3CCCC3)c2)C1 (stereo not drawn) [Example 153] |
| 36.8 nM | CN1CC(C)(C(O)(c2ccc(C3CCC3)cc2)c2cncc(N3CCCC3)c2)C1 (stereo not drawn) [Example 154] |
| 28 nM | CN1CC(C)(C(O)(c2ccc(OC3CCC3)cc2)c2cncc(N3CCCC3)c2)C1 (stereo not drawn) [Example 155] |
| 147 nM | CCOc1ccc(C(O)(c2cncc(N3CCCC3)c2)C2(C)CN(C)C2)cc1 (stereo not drawn) [Example 156] |
| 222 nM | CC(C)Oc1ccc(C(O)(c2cncc(N3CCCC3)c2)C2(C)CN(C)C2)cc1 (stereo not drawn) [Example 158] |
| 91.6 nM | CN1CC(C)(C(O)(c2ccc(C3(C(F)(F)F)CC3)cc2)c2cncc(N3CCCC3)c2)C1 (stereo not drawn) [Example 159] |
| 82.9 nM | CN1CC(C)(C(O)(c2ccc(C3(C)CC3)cc2)c2cncc(N3CCCC3)c2)C1 (stereo not drawn) [Example 160] |
| 202 nM | CN1CC(C)(C(O)(c2ccc(OC3CC3)cc2)c2cncc(N3CCCC3)c2)C1 (stereo not drawn) [Example 161] |
| 43.4 nM | CC(C)c1ccc([C@](O)(c2ccnc(N3CCC(F)(F)C3)c2)C2(C)CN(C)C2)cc1 [Example 162, (S)-[2-(3,3-Difluoro-pyrrolidin-1-yl)-pyridin-4-yl]-(1,3-dimethyl-azetidin-3-yl)-(4-isopropyl-phenyl)-methanol] |
| 24.6 nM | CC(C)c1ccc([C@](O)(c2ccnc(N3C[C@@H](F)[C@@H](F)C3)c2)C2(C)CN(C)C2)cc1 [Example 163, (S)-[2-((3R,4S)-3,4-Difluoro-pyrrolidin-1-yl)-pyridin-4-yl]-(1,3-dimethyl-azetidin-3-yl)-(4-isopropyl-phenyl)-methanol] |
| 677 nM | CC(C)c1ccc([C@](O)(c2ccnc(CCC(C)(C)O)c2)C2(C)CN(C)C2)cc1 [Example 165, 4-{4-[(S)-(1,3-Dimethyl-azetidin-3-yl)-hydroxy-(4-isopropyl-phenyl)-methyl]-pyridin-2-yl}-2-methyl-butan-2-ol] |
| 85.3 nM | CC(C)c1ccc([C@](O)(c2cnnc(N3CCC(F)(F)C3)c2)C2(C)CN(C)C2)cc1 [Example 166, (R)-[6-(3,3-Difluoro-pyrrolidin-1-yl)-pyridazin-4-yl]-(1,3-dimethyl-azetidin-3-yl)-(4-isopropyl-phenyl)-methanol] |

| SMILES | IC50 |
| --- | --- |
| CC(C)COc1cc([C@@](O)(c2ccc(C(C)C)cc2)C2(C)CN(C)C2)ccn1 [Example 164, (S)-(1,3-Dimethyl-azetidin-3-yl)-(2-isobutoxy-pyridin-4-yl)-(4-isopropyl-phenyl)-methanol] | 18.9 nM |
